{"source": "ChEMBL document CHEMBL3638931", "about": "“Histone deacetylase inhibitors, process for preparation and uses thereof” (2014)", "biological_target": "T1, Protein deacetylase HDAC6 (Homo sapiens, UniProt Q9UBN7)", "T1 sequence (Q9UBN7 whole entry)": "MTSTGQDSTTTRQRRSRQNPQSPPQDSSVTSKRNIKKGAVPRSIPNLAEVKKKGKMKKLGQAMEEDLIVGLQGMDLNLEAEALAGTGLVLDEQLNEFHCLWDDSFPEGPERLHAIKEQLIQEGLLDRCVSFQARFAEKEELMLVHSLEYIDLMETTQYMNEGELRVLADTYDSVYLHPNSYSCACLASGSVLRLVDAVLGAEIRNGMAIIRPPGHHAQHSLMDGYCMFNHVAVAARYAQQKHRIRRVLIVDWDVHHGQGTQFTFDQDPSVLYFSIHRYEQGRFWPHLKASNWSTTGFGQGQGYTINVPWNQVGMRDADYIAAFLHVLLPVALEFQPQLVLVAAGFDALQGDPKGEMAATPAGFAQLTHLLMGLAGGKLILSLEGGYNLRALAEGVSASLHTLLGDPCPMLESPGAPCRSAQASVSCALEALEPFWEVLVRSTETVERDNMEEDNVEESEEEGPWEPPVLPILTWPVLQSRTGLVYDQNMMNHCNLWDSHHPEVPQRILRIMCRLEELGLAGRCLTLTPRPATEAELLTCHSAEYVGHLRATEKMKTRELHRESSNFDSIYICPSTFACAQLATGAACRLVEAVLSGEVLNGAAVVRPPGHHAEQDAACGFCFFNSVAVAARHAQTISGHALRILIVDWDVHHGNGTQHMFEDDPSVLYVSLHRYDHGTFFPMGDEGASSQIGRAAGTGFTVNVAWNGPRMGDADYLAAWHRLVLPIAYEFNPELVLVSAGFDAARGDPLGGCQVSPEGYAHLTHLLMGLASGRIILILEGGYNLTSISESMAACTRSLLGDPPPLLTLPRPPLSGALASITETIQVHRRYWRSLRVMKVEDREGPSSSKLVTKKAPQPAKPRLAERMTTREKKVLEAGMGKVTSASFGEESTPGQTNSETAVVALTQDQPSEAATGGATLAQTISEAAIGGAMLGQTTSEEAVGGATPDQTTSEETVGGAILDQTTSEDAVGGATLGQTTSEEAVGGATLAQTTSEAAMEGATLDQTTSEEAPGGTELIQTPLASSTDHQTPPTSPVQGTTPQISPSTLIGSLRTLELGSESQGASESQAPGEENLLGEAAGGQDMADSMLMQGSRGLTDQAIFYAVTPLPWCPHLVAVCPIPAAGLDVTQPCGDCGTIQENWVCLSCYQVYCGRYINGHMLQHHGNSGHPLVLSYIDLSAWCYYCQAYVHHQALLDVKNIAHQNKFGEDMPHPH", "experiment": "BIOMOL Fluorescent-Based HDAC Assay: The BIOMOL fluorescent-based HDAC activity assay has been applied in In vitro HDACi assay for determination of IC50 values of the compounds of this invention. The assay has been carried out in white 96 well formats according to the BIOMOL's method. In order to optimize the experiment conditions and optinal, the exact concentration range of the Deacetylated Standard (biomol, KI-142) that will vary depending on the flurimeter model, the gain setting and the exact excitation and emission wavelengths used. We recommend diluting some of the standard to a relatively low concentration with Assay Buffer (an appropriate series of Deacetylated Standard dilutions from 20 uM to 0.3125 uM), and Assay Buffer as a time zero to a set of wells on the microtiter plate. Experimental to samples (five dilute groups: 100 uM, 20 uM, 4 uM, 0.8 uM, 0.16 uM) should be compared to a time zero.", "data": [{"smiles": "CCN(CC)CCSc1ccc(/C=C/C(=O)NO)cc1NS(=O)(=O)c1ccc(C)cc1", "values": [{"measurement": "IC50", "value": 247, "unit": "nM"}]}, {"smiles": "CCN(CC)CCSc1ccc(/C=C/C(=O)NO)cc1NC(=O)C(Cl)Cl", "values": [{"measurement": "IC50", "value": 313, "unit": "nM"}]}]}
